# PubChem BioAssay AID1918948 (Molecular Pharmacology Branch, DTP, NCI, 2023)
# Test system: K-562 leukemia growth, % test/control
# Assay: Anticancer human tumor K-562 cell line growth inhibition;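 note: spheroids exposed to compounds for 7 days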;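 for viability, T/C: 100% = DMSO vehicle wells and lower values mean fewer viable cells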
# Conditions: spheroids with HUVEC and MSC; for IC50: curve of first compound; for viability, T/C: stronger effect = lower value
# Method in brief: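 Complex spheroids of tumor cells with HUVEC and human MSCs, exposed to iadademstat combined with other agents. Each agent tested in half-log steps from near clinical Cmax (else 10 microM top), DMSO ≤0.25%.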
smiles,measurement,setting,value
CC(C)CC(NC(=O)C(Cc1ccccc1)NC(=O)c1cnccn1)B(O)O (stereo not given) + NC1CCC(NC2CC2c2ccccc2)CC1,IC50,second compound 0.1 µM,1.9 nM
same,IC50,second compound 0.316 µM,1.94 nM
same,IC50,second compound 1 µM,1.95 nM
same,IC50,second compound 3.16 µM,1.77 nM
same,IC50,second compound 10 µM,0.977 nM
same,"viability, T/C","second compound 0.1 µM, first compound 0.000316 µM",99%
same,"viability, T/C","second compound 0.1 µM, first compound 0.001 µM",101%
same,"viability, T/C","second compound 0.1 µM, first compound 0.00316 µM",10.2%
same,"viability, T/C","second compound 0.1 µM, first compound 0.01 µM",2.14%
same,"viability, T/C","second compound 0.1 µM, first compound 0.0316 µM",1.84%
same,"viability, T/C","second compound 0.1 µM, first compound 0.1 µM",0.67%
same,"viability, T/C","second compound 0.316 µM, first compound 0.000316 µM",99.3%
same,"viability, T/C","second compound 0.316 µM, first compound 0.001 µM",102%
same,"viability, T/C","second compound 0.316 µM, first compound 0.00316 µM",12.7%
same,"viability, T/C","second compound 0.316 µM, first compound 0.01 µM",2.31%
same,"viability, T/C","second compound 0.316 µM, first compound 0.0316 µM",0.86%
same,"viability, T/C","second compound 0.316 µM, first compound 0.1 µM",2.09%
same,"viability, T/C","second compound 1 µM, first compound 0.000316 µM",104%
same,"viability, T/C","second compound 1 µM, first compound 0.001 µM",101%
same,"viability, T/C","second compound 1 µM, first compound 0.00316 µM",13.5%
same,"viability, T/C","second compound 1 µM, first compound 0.01 µM",1.19%
same,"viability, T/C","second compound 1 µM, first compound 0.0316 µM",1.68%
same,"viability, T/C","second compound 1 µM, first compound 0.1 µM",1.1%
same,"viability, T/C","second compound 3.16 µM, first compound 0.000316 µM",105%
same,"viability, T/C","second compound 3.16 µM, first compound 0.001 µM",87.8%
same,"viability, T/C","second compound 3.16 µM, first compound 0.00316 µM",11.7%
same,"viability, T/C","second compound 3.16 µM, first compound 0.01 µM",1.18%
same,"viability, T/C","second compound 3.16 µM, first compound 0.0316 µM",2.66%
same,"viability, T/C","second compound 3.16 µM, first compound 0.1 µM",0.99%
same,"viability, T/C","second compound 10 µM, first compound 0.000316 µM",97.1%
same,"viability, T/C","second compound 10 µM, first compound 0.001 µM",49%
same,"viability, T/C","second compound 10 µM, first compound 0.00316 µM",9.37%
same,"viability, T/C","second compound 10 µM, first compound 0.01 µM",1.01%
same,"viability, T/C","second compound 10 µM, first compound 0.0316 µM",0.67%
same,"viability, T/C","second compound 10 µM, first compound 0.1 µM",1.77%
